Consider 21 compounds from patent US20090062253A1, “HETEROCYCLODIAZEPINE CANNABINOID RECEPTOR MODULATORS FOR TREATMENT OF DISEASE” (KALYPSYS, INC., priority 2007, published 2009).

The structures appear in SMILES notation.

Test [1] deals with T1, human cannabinoid receptor type 1 (Homo sapiens, UniProt P21554).
T1 construct: purchased Perkin Elmer RBHCB1M; host or cells: HEK 293 EBNA cells
The test is described as follows: Human CB1 Radioligand Binding Assay (basis of selectivity CB2 vs. CB1). On the procedure:
(§1) This receptor binding filtration assay measures the receptor-ligand interactions of compounds by measuring ability to compete with a radiolabeled control ligand. Reactions were performed in 96 deep-well plate (Costar 3961) with a final volume of 600 ul. Compounds were added to each well either in single point (10 uM final) or dose-response. Compounds were delivered in DMSO or further diluted in incubation buffer to a final assay DMSO concentration of 1%. Incubation buffer (50 mM Tris-HCl pH 7.4, 2.5 mM EGTA, 5 mM MgCl2, 5.0 mg/ml fatty acid free BSA) was added to each well. Following buffer addition, [^3H] CP-55,940 was added. Tritiated CP-55,940 (Perkin Elmer) was used at the Kd determined from prior saturation binding experiments conducted on each lot of membranes. Membrane preparations from stably transfected CHO CB2 cells were added and the reaction was incubated for 90 minutes at 30° C. Unifilter GF/C filtration plates (Perkin Elmer) were pre-wet with 0.05% polyethylenimine. Samples were transferred to Unifilter plates and separation of unbound radioligand was achieved using a vacuum manifold (Millipore). Following thorough washing with 5 ml/well ice-cold wash buffer (50 mM Tris-HCl pH 7.4, 2.5 mM EGTA, 5 mM MgCl2, 0.5 mg/ml fatty acid free BSA), filterplates were dried completely. Betaplate Scint Scintillation cocktail (25 ul, Perkin Elmer) was applied and plates were read using Microbeta Trilux (Wallac). Data analysis was performed in Spotfire. Activity of the positive control (100 nM CP-55,940) was set as 100% efficacy.
The CB1 binding assay was performed as described above except that HEK 293 EBNA cells expressing human cannabinoid receptor type 1 (Perkin Elmer cat #RBHCB1M) were used according the manufacturer's instructions. The incubation buffer was composed of 50 mM Tris-HCl pH 7.4, 2.5 mM EDTA, 5 mM MgCl2, 5.0 mg/ml fatty acid free BSA and the wash buffer was composed of 50 mM Tris-HCl pH 7.4, 2.5 mM EDTA, 5 mM MgCl2, 0.5 mg/ml fatty acid free BSA. Activity of the positive control (100 nM CP-55,940) was set as 100% efficacy.

For test [2], the target named is T2, Human CB2 (Homo sapiens, UniProt P34972).
T2 construct: expressed in transfected cells; membrane preparation
The test is described as follows: Human CB2 Radioligand Binding Assay. Particulars: membranes from stably transfected CHO CB2 cells; competition with [3H] CP-55,940; read-out: CB2 Ligand Binding Asssay. As for the experimental part:
as §1
Stable recombinant Human CB2-CHO cell membranes were prepared as follows: Chinese Hamster Ovarian (CHO) cells stably expressing human cannabinoid receptor type 2 were grown to ˜90% confluence in 15×100 mm culture dishes under puromycin selection (5 ug/ml) Cells were harvested from culture flasks using a cell scraper, were washed once with cold phosphate-buffered saline (calcium and magnesium free) and pelleted by centrifugation at 400 g for 5 min at 4° C. Cell pellet was washed once with cold phosphate-buffered saline and centrifuged again at 400×g for 5 min at 4° C. The pellet was suspended in ice-cold lysis buffer (10 mM Tris-HCl, 0.1 mM EDTA, containing […], pH 7.5) and homogenized in a chilled 7 ml glass dounce homogenizer using 50 strokes. The homogenate was centrifuged at 400 g for 15 min at 4° C. The cloudy supernatant was collected and centrifuged at 41000 g for 30 min at 4° C. The resulting pellet was washed with ice-cold sucrose-free lysis buffer and centrifuged again at 41000 g for 30 min at 4° C. The membrane pellet was suspended in sucrose-free storage buffer (10 mm Tris-HCl, 0.1 mM EDTA, pH 7.5) to a concentration of 2-3 mg protein/ml. Aliquots were flash frozen in liquid nitrogen and stored at −80° C. Concentration was determined using Dc protein assay kit (Bio-Rad).

T2 sequence (P34972 whole entry): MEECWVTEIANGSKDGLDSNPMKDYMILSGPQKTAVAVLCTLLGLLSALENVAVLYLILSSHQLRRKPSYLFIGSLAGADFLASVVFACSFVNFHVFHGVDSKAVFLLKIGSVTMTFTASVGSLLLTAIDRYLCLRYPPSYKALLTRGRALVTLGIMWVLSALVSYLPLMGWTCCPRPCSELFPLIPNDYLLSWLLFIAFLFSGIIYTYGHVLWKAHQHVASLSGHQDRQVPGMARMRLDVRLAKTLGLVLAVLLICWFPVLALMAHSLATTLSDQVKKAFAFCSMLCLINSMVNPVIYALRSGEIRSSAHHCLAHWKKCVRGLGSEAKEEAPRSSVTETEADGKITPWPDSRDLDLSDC
T1 sequence (P21554 whole entry): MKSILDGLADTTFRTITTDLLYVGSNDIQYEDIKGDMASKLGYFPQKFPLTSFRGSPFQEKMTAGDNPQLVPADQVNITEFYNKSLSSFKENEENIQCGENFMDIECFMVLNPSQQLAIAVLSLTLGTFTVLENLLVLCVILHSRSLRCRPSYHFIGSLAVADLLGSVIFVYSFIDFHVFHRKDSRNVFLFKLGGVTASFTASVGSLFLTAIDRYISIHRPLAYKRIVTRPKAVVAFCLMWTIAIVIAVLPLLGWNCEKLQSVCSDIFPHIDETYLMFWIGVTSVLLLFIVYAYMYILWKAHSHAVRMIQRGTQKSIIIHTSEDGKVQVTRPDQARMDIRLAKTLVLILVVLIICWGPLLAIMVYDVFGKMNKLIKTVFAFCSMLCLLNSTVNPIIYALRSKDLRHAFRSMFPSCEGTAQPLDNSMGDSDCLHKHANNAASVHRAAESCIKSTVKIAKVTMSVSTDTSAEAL

As to `Cc1cccc(C2c3cccn3CCCN2C(=O)Nc2ccc(Cl)cc2Cl)c1` (stereo not drawn) [Example 11, N-(2,4-Dichlorophenyl)-1-m-tolyl-4,5-dihydro-1H-pyrrolo[1,2-a][1,4]diazepine-2(3H)-carboxamide], the “Selectivity, CB2 vs. CB1” value in test [1] is given as “− (− indicates < 10-fold)”. Also, the IC50 (radioligand displacement) in test [2] was above 1 µM.
The matching figures for `O=C(Nc1ccc(F)cc1F)N1CCCn2cccc2C1c1ccccc1` (stereo not drawn) [Example 12, N-(2,4-Difluorophenyl)-1-phenyl-4,5-dihydro-1H-pyrrolo[1,2-a][1,4]diazepine-2(3H)-carboxamide]: “− (− indicates < 10-fold)” and above 1 µM.
In the case of `O=C(Nc1ccc(Cl)cc1Cl)N1CCCn2cccc2C1c1ccccc1` (stereo not drawn) [Example 13, N-(2,4-Dichlorophenyl)-1-phenyl-4,5-dihydro-1H-pyrrolo[1,2-a][1,4]diazepine-2(3H)-carboxamide], the “Selectivity, CB2 vs. CB1” value in test [1] was “− (− indicates < 10-fold)”. Further, in test [2], the IC50 (radioligand displacement) was above 1 µM.
As to `CC(C)(C)c1cccc(C2c3cccn3CCCN2C(=O)Nc2ccc(F)cc2F)c1` (stereo not drawn) [Example 18, 1-(3-tert-Butylphenyl)-N-(2,4-difluorophenyl)-4,5-dihydro-1H-pyrrolo[1,2-a][1,4]diazepine-2(3H)-carboxamide], the “Selectivity, CB2 vs. CB1” value in test [1] was “+ (+ indicates > 10-fold)”. For the same compound, in test [2], the IC50 (radioligand displacement) is below 1 µM.
The like results for `CC(C)(C)c1cccc(C2c3cccn3CCCN2C(=O)Nc2ccc(Cl)cc2Cl)c1` (stereo not drawn) [Example 19, 1-(3-tert-Butylphenyl)-N-(2,4-dichlorophenyl)-4,5-dihydro-1H-pyrrolo[1,2-a][1,4]diazepine-2(3H)-carboxamide] were, in that order, “− (− indicates < 10-fold)” and above 1 µM.
The matching figures for `O=C(Nc1ccc(Cl)cc1Cl)N1CCCn2cccc2C1Cc1ccccc1` (stereo not drawn) [Example 21, 1-Benzyl-N-(2,4-dichlorophenyl)-4,5-dihydro-1H-pyrrolo[1,2-a][1,4]diazepine-2(3H)-carboxamide]: “− (− indicates < 10-fold)” and above 1 µM.
The matching figures for `CC(C)(C)c1ccc(CC2c3cccn3CCCN2C(=O)Nc2ccc(F)cc2F)cc1` (stereo not drawn) [Example 23, 1-(4-tert-Butylbenzyl)-N-(2,4-difluorophenyl)-4,5-dihydro-1H-pyrrolo[1,2-a][1,4]diazepine-2(3H)-carboxamide]: “+ (+ indicates > 10-fold)” and below 1 µM.
`CC(C)(C)c1ccc(CC2c3cccn3CCCN2C(=O)Nc2ccc(Cl)cc2Cl)cc1` (stereo not drawn) [Example 24, 1-(4-tert-Butylbenzyl)-N-(2,4-dichlorophenyl)-4,5-dihydro-1H-pyrrolo[1,2-a][1,4]diazepine-2(3H)-carboxamide]: in test [1], the “Selectivity, CB2 vs. CB1” value is listed as “− (− indicates < 10-fold)”. Also, in test [2], the IC50 (radioligand displacement) was below 1 µM.
With `CC(C)(C)c1ccc(C2c3ccnn3CCCN2C(=O)Nc2ccc(Cl)cc2Cl)cc1` (stereo not drawn) [Example 25, 4-(4-tert-Butylphenyl)-N-(2,4-dichlorophenyl)-7,8-dihydro-4H-pyrazolo [1,5-a][1,4]diazepine-5(6H)-carboxamide], the “Selectivity, CB2 vs. CB1” value in test [1] was “+ (+ indicates > 10-fold)”. The IC50 (radioligand displacement) in test [2] is below 1 µM.
The like results for `CC(C)(C)c1ccc(C2c3nccn3CCCN2C(=O)Nc2ccc(F)cc2F)cc1` (stereo not drawn) [Example 27, 9-(4-tert-Butylphenyl)-N-(2,4-difluorophenyl)-6,7-dihydro-5H-imidazo [1,2-a][1,4]diazepine-8(9H)-carboxamide] were, in that order, “+ (+ indicates > 10-fold)” and below 1 µM.
As for `CC(C)(C)c1ccc(C2c3nccn3CCCN2C(=O)Nc2ccc(F)c(F)c2)cc1` (stereo not drawn) [Example 28, 9-(4-tert-Butylphenyl)-N-(3,4-difluorophenyl)-6,7-dihydro-5H-imidazo[1,2-a][1,4]diazepine-8(9H)-carboxamide], the “Selectivity, CB2 vs. CB1” value in test [1] is recorded as “+ (+ indicates > 10-fold)”. The IC50 (radioligand displacement) in test [2] was below 1 µM.
As to `CC(C)(C)c1ccc(C2c3nccn3CCCN2C(=O)Nc2ccc(Cl)cc2Cl)cc1` (stereo not drawn) [Example 29, 9-(4-tert-Butylphenyl)-N-(2,4-dichlorophenyl)-6,7-dihydro-5H-imidazo[1,2-a][1,4]diazepine-8(9H)-carboxamide], in test [1], the “Selectivity, CB2 vs. CB1” value was “− (− indicates < 10-fold)”. Also, the IC50 (radioligand displacement) in test [2] is above 1 µM.
For `CC(C)(C)c1ccc(C2c3cncn3CCCN2C(=O)Nc2ccc(Cl)cc2Cl)cc1` (stereo not drawn) [Example 31, 9-(4-tert-Butylphenyl)-N-(2,4-dichlorophenyl)-6,7-dihydro-5H-imidazo[1,5-a][1,4]diazepine-8(9H)-carboxamide], the “Selectivity, CB2 vs. CB1” value in test [1] is reported as “+ (+ indicates > 10-fold)”. In addition, in test [2], the IC50 (radioligand displacement) was below 1 µM.
The matching figures for `CC(C)(C)C1CCC(C2NCCCn3cccc32)CC1` (stereo not drawn) [Example 32, 1-(4-tert-Butylcyclohexyl)-2,3,4,5-tetrahydro-1H-pyrrolo[1,2-a][1,4]diazepine]: “+ (+ indicates > 10-fold)” and above 1 µM.
Take `CC(C)(C)C1CCC(C2c3cccn3CCCN2C(=O)Nc2ccc(F)c(F)c2)CC1` (stereo not drawn) [Example 33, 1-(4-tert-Butylcyclohexyl)-N-(3,4-difluorophenyl)-4,5-dihydro-1H-pyrrolo[1,2-a][1,4]diazepine-2(3H)-carboxamide]: the “Selectivity, CB2 vs. CB1” value in test [1] is recorded as “− (− indicates < 10-fold)”. Besides, in test [2], the IC50 (radioligand displacement) was below 1 µM.
As for `CC(C)(C)C1CCC(C2c3cccn3CCCN2C(=O)Nc2ccc(F)cc2F)CC1` (stereo not drawn) [Example 34, 1-(4-tert-Butylcyclohexyl)-N-(2,4-difluorophenyl)-4,5-dihydro-1H-pyrrolo[1,2-a][1,4]diazepine-2(3H)-carboxamide], the “Selectivity, CB2 vs. CB1” value in test [1] is on record as “+ (+ indicates > 10-fold)”. The IC50 (radioligand displacement) in test [2] is below 1 µM.
The like results for `CC(C)(C)C1CCC(C2c3cccn3CCCN2C(=O)Nc2ccc(Cl)cc2Cl)CC1` (stereo not drawn) [Example 35, 1-(4-tert-Butylcyclohexyl)-N-(2,4-dichlorophenyl)-4,5-dihydro-1H-pyrrolo[1,2-a][1,4]diazepine-2(3H)-carboxamide] were, in that order, “− (− indicates < 10-fold)” and below 1 µM.
With `CC(C)(C)c1ccc(C2c3ccnn3CCCN2C(=O)Nc2ccc(F)cc2F)cc1` (stereo not drawn) [Example 36, 4-(4-tert-Butylphenyl)-N-(2,4-difluorophenyl)-7,8-dihydro-4H-pyrazolo[1,5-a][1,4]diazepine-5(6H)-carboxamide], the “Selectivity, CB2 vs. CB1” value in test [1] is “+ (+ indicates > 10-fold)”. For the same compound, in test [2], the IC50 (radioligand displacement) was below 1 µM.
Turning to `CC(C)(C)c1ccc(C2c3cncn3CCCN2C(=O)Nc2ccc(F)cc2F)cc1` (stereo not drawn) [Example 37, 9-(4-tert-Butylphenyl)-N-(2,4-difluorophenyl)-6,7-dihydro-5H-imidazo[1,5-a][1,4]diazepine-8(9H)-carboxamide], in test [1], the “Selectivity, CB2 vs. CB1” value was “+ (+ indicates > 10-fold)”. For the same compound, the IC50 (radioligand displacement) in test [2] is below 1 µM.
For the compound `O=C(Nc1ccc(F)cc1F)N1CCCn2cccc2C1Cc1ccccc1` (stereo not drawn) [Example 41, 1-Benzyl-N-(2,4-difluorophenyl)-4,5-dihydro-1H-pyrrolo[1,2-a][1,4]diazepine-2(3H)-carboxamide], the “Selectivity, CB2 vs. CB1” value in test [1] is listed as “− (− indicates < 10-fold)”. For the same compound, the IC50 (radioligand displacement) in test [2] is above 1 µM.
In the case of `CC(C)(C)C1CCC(C2c3cccn3CCCN2C(=O)c2ccc(F)cc2F)CC1` (stereo not drawn) [Example 45, (1-(4-tert-Butylcyclohexyl)-4,5-dihydro-1H-pyrrolo[1,2-a][1,4]diazepin-2(3H)-yl)(2,4-difluorophenyl)methanone], the “Selectivity, CB2 vs. CB1” value in test [1] is reported as “− (− indicates < 10-fold)”. In addition, in test [2], the IC50 (radioligand displacement) was below 1 µM.
